Patent US8076352B2, “Administration of carboline derivatives useful in the treatment of cancer and other diseases” (PTC Therapeutics, Inc., priority 2004, dated 2011)
pEC50: −log10 of the molar value.

System: hypoxia-inducible endogenous VEGF expression in HeLa cells
Experiment: Hypoxia-inducible endogenous VEGF expression, VEGF ELISA of conditioned media (dose-response EC50)
Format: cell-based
Details: Homo sapiens, HeLa cells under hypoxic conditions
Outline: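 Secreted VEGF was quantified by ELISA against a per-assay standard curve after HeLa cells spent 24-48 h in 1% O2, 5% CO2, N2 balance with or without compound. Across a series of, e.g., seven concentrations, percentage inhibition (max 100%, min 0%) gave EC50 and CC50 values.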

Structure (SMILES)	pEC50
O=C(OCCCl)N1CCc2c([nH]c3ccc(Cl)cc23)C1c1ccccc1F (stereo not shown) [Compound 103]	7.40 to 8.10
COc1ccc(C2c3[nH]c4ccc(Cl)cc4c3CCN2C(=O)OC(C)Cl)cc1 (stereo not shown) [Compound 182]	6.00 to 6.70
COc1ccc(C2c3[nH]c4ccc(Cl)cc4c3CCN2C(=O)NCc2ccccc2)cc1 (stereo not shown) [Compound 188]	6.00 to 6.70
CC(C)OC(=O)N1CCc2c([nH]c3ccc(Cl)cc23)C1c1ccc(C(C)C)cc1 (stereo not shown) [Compound 24]	> 8.10
CCOC(=O)N1CCc2c([nH]c3ccc(Br)cc23)C1c1cccc(Cl)c1 (stereo not shown) [Compound 16]	> 8.10
O=C(OCCCl)N1CCc2c([nH]c3ccc(Cl)cc23)C1c1ccc(C(F)(F)F)cc1 (stereo not shown) [Compound 33]	> 8.10
CCOC(=O)N1CCc2c([nH]c3ccc(Cl)cc23)C1c1cc(F)cc(F)c1 (stereo not shown) [Compound 77]	7.40 to 8.10
CCOC(=O)N1CCc2c([nH]c3ccc(Cl)cc23)C1c1cccc(C(F)(F)F)c1 (stereo not shown) [Compound 37]	> 8.10
COc1ccc(C2c3[nH]c4ccc(Cl)cc4c3CCN2C(=O)OC(C)C)cc1 (stereo not shown) [Compound 57]	7.40 to 8.10
O=C(OCCCl)N1CCc2c([nH]c3ccc(Cl)cc23)C1c1ccccc1 (stereo not shown) [Compound 114]	7.40 to 8.10
CC(C)OC(=O)N1CCc2c([nH]c3ccc(Cl)cc23)C1c1cccc(F)c1 (stereo not shown) [Compound 90]	7.40 to 8.10
O=C(Oc1ccccc1)N1CCc2c([nH]c3ccc(Cl)cc23)C1c1ccccc1 (stereo not shown) [Compound 121]	7.40 to 8.10
CC(C)OC(=O)N1CCc2c([nH]c3ccc(Cl)cc23)C1c1ccc(C(F)(F)F)cc1 (stereo not shown) [Compound 26]	> 8.10
COc1ccc(C2c3[nH]c4ccc(Cl)cc4c3CCN2C(=O)OCCCl)cc1 (stereo not shown) [Compound 61]	7.40 to 8.10
O=C(NC1CCCCC1)N1CCc2c([nH]c3ccc(Br)cc23)C1c1cccc(Cl)c1 (stereo not shown) [Compound 140]	6.70 to 7.40
CCOC(=O)N1CCc2c([nH]c3ccc(Cl)cc23)C1c1ccc(C)cc1 (stereo not shown) [Compound 91]	7.40 to 8.10
CCOC(=O)N1CCc2c([nH]c3ccc(Br)cc23)C1c1cccc(C(F)(F)F)c1 (stereo not shown) [Compound 32]	> 8.10
CC(=O)N1CCc2c([nH]c3ccc(Cl)cc23)C1c1ccc(OCc2ccccc2)cc1 (stereo not shown) [Compound 184]	6.00 to 6.70
CCOC(=O)N1CCc2c([nH]c3ccc(Cl)cc23)C1c1cccc(F)c1F (stereo not shown) [Compound 5]	> 8.10

Further lines, results first:

pEC50	Structure (SMILES)
6.70 to 7.40	COc1ccc(C2c3[nH]c4ccc(Cl)cc4c3CCN2C(=O)Cc2cccs2)cc1 (stereo not shown) [Compound 374]
< 6.00	COc1cccc(C2NC(CO)Cc3c2[nH]c2ccccc32)c1 (stereo not shown) [Compound 318]
< 6.00	Fc1ccc2[nH]c3c(c2c1)CCNC3c1cccc(Cl)c1 (stereo not shown) [Compound 253]
> 8.10	CCOC(=O)N1CCc2c([nH]c3ccc(Cl)cc23)C1c1cccc(CN2CCN(CCCN(C)C)CC2)c1 (stereo not shown) [Compound 389]
> 8.10	COc1ccc(C2c3[nH]c4ccc(Cl)cc4c3CCN2C(=S)SC)cc1 (stereo not shown) [Compound 384]
> 8.10	N#Cc1ccc(C2c3[nH]c4ccc(Cl)cc4c3CCN2C(=O)Oc2ccc(Cl)cc2)cc1 (stereo not shown) [Compound 350]
6.00 to 6.70	Fc1cccc(C2NCCc3c2[nH]c2ccc(Cl)cc32)c1 (stereo not shown) [Compound 203]
6.00 to 6.70	COc1ccc(C2c3[nH]c4ccc(Cl)cc4c3CCN2C(=O)O[C@H]2C[C@@H](C)CC[C@@H]2C(C)C)cc1 (stereo partly shown) [Compound 192]
< 6.00	CCN(CC)C(=O)N1CCc2c([nH]c3ccc(Cl)cc23)C1c1ccc(OC)cc1 (stereo not shown) [Compound 339]
6.00 to 6.70	CCOC(=O)N1CCc2c([nH]c3ccc(F)cc23)C1c1ccc(OC)cc1 (stereo not shown) [Compound 191]
6.00 to 6.70	CCC(C)NC(=S)N1CCc2c([nH]c3ccc(Cl)cc23)C1c1ccc(C(C)C)cc1 (stereo not shown) [Compound 336]
< 6.00	COc1ccc(C2c3[nH]c4ccccc4c3CCN2C(=O)NC(C)C)cc1 (stereo not shown) [Compound 306]
< 6.00	Oc1cccc(C2NCCc3c2[nH]c2ccc(Cl)cc32)c1 (stereo not shown) [Compound 291]
< 6.00	Clc1ccc2[nH]c3c(c2c1)CCNC3Cc1ccccc1 (stereo not shown) [Compound 251]
6.00 to 6.70	COCC(=O)N1CCc2c([nH]c3ccc(Cl)cc23)C1c1ccc(OC)cc1 (stereo not shown) [Compound 376]
> 8.10	CCOC(=O)N1CCc2c([nH]c3ccc(Cl)cc23)C1c1ccc(OCCCn2cncn2)cc1 (stereo not shown) [Compound 390]

Same assay, conditions: Homo sapiens, HeLa cells, hypoxic conditions (1% O2)

Structure (SMILES)	pEC50
O=C(Oc1ccc(F)cc1)N1CCc2c([nH]c3ccc(Cl)cc23)C1c1ccc(OCCCCN2CCCC2)cc1 (stereo not shown) [Compound 736]	> 8.10
O=C(Oc1ccc(F)cc1)N1CCc2c([nH]c3ccc(Cl)cc23)C1c1ccc(OCCCCCCNCCCn2ccnc2)cc1 (stereo not shown) [Compound 779]	6.70 to 7.40
O=C(Oc1ccc(Cl)cc1)N1CCc2c([nH]c3ccc(Cl)cc23)C1c1ccc(OCCCCNCCO)cc1 (stereo not shown) [Compound 699]	7.40 to 8.10
O=C(Oc1ccc(Cl)cc1)N1CCc2c([nH]c3ccc(Cl)cc23)C1c1ccc(OCCCN2CCCC2)cc1 (stereo not shown) [Compound 429]	> 8.10
CC(=O)N1CCN(CC(O)COc2ccc(C3c4[nH]c5ccc(Cl)cc5c4CCN3C(=O)Oc3ccc(F)cc3)cc2)CC1 (stereo not shown) [Compound 637]	> 8.10
CN(C)CCCOc1ccc(C2c3[nH]c4ccc(Cl)cc4c3CCN2C(=O)Oc2ccccc2)cc1 (stereo not shown) [Compound 493]	6.70 to 7.40
O=C(Oc1ccc(F)cc1)N1CCc2c([nH]c3ccc(Cl)cc23)C1c1ccc(OCCCCCCN2CCOCC2)cc1 (stereo not shown) [Compound 776]	> 8.10
CN1CCN(CCCCOc2ccc(C3c4[nH]c5ccc(Cl)cc5c4CCN3C(=O)Oc3ccc(F)cc3)cc2)CC1 (stereo not shown) [Compound 740]	6.70 to 7.40

Further lines, results first:

pEC50	Structure (SMILES)
< 6.00	CSC(C)CC1NCCc2c1[nH]c1ccc(Cl)cc21 (stereo not shown) [Compound 568]
6.70 to 7.40	O=C(Oc1ccccc1Cl)N1CCc2c([nH]c3ccc(Cl)cc23)C1c1ccc(F)cc1 (stereo not shown) [Compound 588]
6.70 to 7.40	CCOC(=O)N1CCc2c([nH]c3ccc(Cl)cc23)C1c1ccc(C(=O)NCC2CCCO2)cc1 (stereo not shown) [Compound 494]
6.00 to 6.70	CCOC(=O)N1CCc2c([nH]c3ccc(Cl)cc23)C1c1cccc(C(=O)N2CCN(CC)CC2)c1 (stereo not shown) [Compound 525]
6.70 to 7.40	CCOC(=O)N1CCc2c([nH]c3ccc(Br)cc23)C1c1ccc(C(N)=O)cc1 (stereo not shown) [Compound 505]
> 8.10	CCOC(=O)N1CCc2c([nH]c3ccc(Br)cc23)C1c1ccc(CO)cc1 (stereo not shown) [Compound 430]
6.70 to 7.40	CCOC(=O)N1CCc2c([nH]c3ccc(Cl)cc23)C1c1ccc(C(=O)N2CCN(CC)CC2)cc1 (stereo not shown) [Compound 473]
6.70 to 7.40	O=C(Oc1ccccc1Cl)N1CCc2c([nH]c3ccc(Cl)cc23)C1c1ccc(C(F)(F)F)cc1 (stereo not shown) [Compound 594]
> 8.10	O=C(Oc1ccc(F)cc1)N1CCc2c([nH]c3ccc(Cl)cc23)C1c1ccc(OCCCCCCCl)cc1 (stereo not shown) [Compound 723]
> 8.10	O=C(Oc1ccc(Cl)cc1)N1CCc2c([nH]c3ccc(Cl)cc23)C1c1ccc(OCCCCn2cncn2)cc1 (stereo not shown) [Compound 706]
6.00 to 6.70	CCOC(=O)N1CCc2c([nH]c3ccc(Cl)cc23)C1c1cccc(C(=O)N2CCN(C)CC2)c1 (stereo not shown) [Compound 529]
6.00 to 6.70	CCOC(=O)N1CCc2c([nH]c3ccc(Cl)cc23)C1C(C)CC (stereo not shown) [Compound 547]
> 8.10	COCCOc1ccc(C2c3[nH]c4ccc(Cl)cc4c3CCN2C(=O)Oc2ccccc2)cc1 (stereo not shown) [Compound 436]
6.70 to 7.40	CCOC(=O)N1CCc2c([nH]c3ccc(Cl)cc23)C1c1ccc(C(=O)NCCN2CCOCC2)cc1 (stereo not shown) [Compound 509]
7.40 to 8.10	COCCOC(=O)Nc1ccc(C2c3[nH]c4ccc(Cl)cc4c3CCN2C(=O)Oc2ccc(Cl)cc2)cc1 (stereo not shown) [Compound 470]
6.00 to 6.70	CCCCCCC1c2[nH]c3ccc(Cl)cc3c2CCN1C(=O)OCC (stereo not shown) [Compound 515]
> 8.10	C=CCOc1ccc(C2c3[nH]c4ccc(Cl)cc4c3CCN2C(=O)OCCC)cc1 (stereo not shown) [Compound 406]
6.70 to 7.40	CCOC(=O)N1CCc2c([nH]c3ccc(Cl)cc23)C1c1coc2ccccc2c1=O (stereo not shown) [Compound 499]
6.00 to 6.70	CC(CC1NCCc2c1[nH]c1ccc(Cl)cc21)c1ccccc1 (stereo not shown) [Compound 532]
> 8.10	CCOC(=O)N1CCc2c([nH]c3ccc(Br)cc23)C1c1ccc(C(=O)NCCOC)cc1 (stereo not shown) [Compound 438]
> 8.10	C=CCOc1ccc(C2c3[nH]c4ccc(Cl)cc4c3CCN2C(=O)OCCF)cc1 (stereo not shown) [Compound 399]
6.00 to 6.70	CCOC(=O)N1CCc2c([nH]c3ccc(Cl)cc23)C1c1ccc(C(N)=O)cc1 (stereo not shown) [Compound 542]
6.70 to 7.40	O=C(Oc1ccc(Cl)cc1)Oc1ccc(C2c3[nH]c4ccc(Cl)cc4c3CCN2C(=O)Oc2ccc(Cl)cc2)cc1 (stereo not shown) [Compound 578]
> 8.10	O=C(Oc1ccc(F)cc1)N1CCc2c([nH]c3ccc(Cl)cc23)C1c1ccc(OCCCCCCn2ccnc2)cc1 (stereo not shown) [Compound 780]
> 8.10	COC(=O)c1ccc(C2c3[nH]c4ccc(Br)cc4c3CCN2C(=O)Oc2ccc(F)cc2)cc1 (stereo not shown) [Compound 592]

Same assay, conditions: Homo sapiens, HeLa cells, hypoxic conditions (1% O2, 5% CO2)

Structure (SMILES)	pEC50
O=C(Oc1ccc(Cl)cc1)N1CCc2c([nH]c3ccc(Cl)cc23)C1c1ccc(OCC(O)CN2CCOCC2)cc1 (stereo not shown) [Compound 904]	> 8.10
O=C(Oc1ccc(Cl)cc1)N1CCc2c([nH]c3ccc(Cl)cc23)C1c1ccc(OCCNc2cccnc2)cc1 (stereo not shown) [#843]	> 8.10
O=C(Oc1ccc(Cl)cc1)N1CCc2c([nH]c3ccc(Cl)cc23)C1c1ccc(OCCn2ccnn2)cc1 (stereo not shown) [Compound 839]	7.40 to 8.10
CN1CCN(CCCOc2ccc(C3c4[nH]c5ccc(Cl)cc5c4CCN3C(=O)Oc3ccc(F)cc3)cc2)CC1 (stereo not shown) [Compound 993]	> 8.10
O=C(Oc1ccccc1)N1CCc2c([nH]c3ccc(Cl)cc23)C1c1ccc(OCCCn2ccnc2)cc1 (stereo not shown) [Compound 911]	> 8.10
O=C(Oc1ccc(F)cc1)N1CCc2c([nH]c3ccc(Cl)cc23)C1c1ccc(OCCCN2CCOCC2)cc1 (stereo not shown) [Compound 989]	> 8.10
CN1CCN(CC(O)COc2ccc(C3c4[nH]c5ccc(Cl)cc5c4CCN3C(=O)Oc3ccc(Cl)cc3)cc2)CC1 (stereo not shown) [Compound 970]	7.40 to 8.10
CNCC(O)COc1ccc(C2c3[nH]c4ccc(Cl)cc4c3CCN2C(=O)Oc2ccc(Cl)cc2)cc1 (stereo not shown) [Compound 850]	6.70 to 7.40
